Assay [1] deals with T1, Acetylcholinesterase (Homo sapiens, UniProt P22303). The experiment in a line: Inhibition of human erythrocyte AChE after 5 mins by Ellman's method. (In general: DTNB colorimetry detects thiols as they appear.)
Assay [2] deals with Cholinesterase (Homo sapiens, UniProt P06276). The experiment in a line: Inhibition of human plasma BChE after 5 mins by Ellman's method. It is filed as cell-free.
Assay [3] has as its target T1, Acetylcholinesterase. The experiment in a line: Inhibition of human erythrocyte AChE after 5 mins by noncompetitive Lineweaver-Burke plot analysis for enzyme-inhibitor complex.
The target in assay [4] is T1, Acetylcholinesterase. The experiment in a line: Inhibition of human erythrocyte AChE after 5 mins by noncompetitive Lineweaver-Burke plot analysis.
The target of assay [5] is T1, Acetylcholinesterase. The experiment in a line: Inhibition of human erythrocyte AChE at 0.0000001 mM to 1 mM after 5 mins by Ellman's method.

Activity calls are given as the source filed them. The calls are words filed in the database; no cut-off is given here.

Our source for the IC50, Ki and inhibition values is ChEMBL document CHEMBL1154957, “Preparation and in vitro screening of symmetrical bispyridinium cholinesterase inhibitors bearing different connecting linkage-initial study for Myasthenia gravis implications” (Bioorg Med Chem Lett, 2010).

T1 sequence (P22303 whole entry): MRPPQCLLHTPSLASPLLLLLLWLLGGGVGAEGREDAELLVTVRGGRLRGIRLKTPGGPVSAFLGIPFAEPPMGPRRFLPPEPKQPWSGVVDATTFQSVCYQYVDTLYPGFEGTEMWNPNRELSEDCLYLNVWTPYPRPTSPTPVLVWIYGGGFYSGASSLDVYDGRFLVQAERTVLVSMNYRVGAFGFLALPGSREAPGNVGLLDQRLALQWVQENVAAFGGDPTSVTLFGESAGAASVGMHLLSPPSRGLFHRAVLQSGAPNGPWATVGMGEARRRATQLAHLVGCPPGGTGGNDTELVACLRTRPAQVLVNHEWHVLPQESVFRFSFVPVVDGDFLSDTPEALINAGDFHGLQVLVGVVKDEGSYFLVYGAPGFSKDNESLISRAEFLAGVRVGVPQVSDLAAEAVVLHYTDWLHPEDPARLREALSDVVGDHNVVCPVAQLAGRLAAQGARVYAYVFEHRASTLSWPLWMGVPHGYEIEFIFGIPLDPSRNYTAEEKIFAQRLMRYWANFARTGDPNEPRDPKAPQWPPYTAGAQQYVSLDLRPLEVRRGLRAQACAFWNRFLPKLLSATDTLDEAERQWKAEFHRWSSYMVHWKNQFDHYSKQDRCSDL
Cholinesterase, sequence (P06276 whole entry): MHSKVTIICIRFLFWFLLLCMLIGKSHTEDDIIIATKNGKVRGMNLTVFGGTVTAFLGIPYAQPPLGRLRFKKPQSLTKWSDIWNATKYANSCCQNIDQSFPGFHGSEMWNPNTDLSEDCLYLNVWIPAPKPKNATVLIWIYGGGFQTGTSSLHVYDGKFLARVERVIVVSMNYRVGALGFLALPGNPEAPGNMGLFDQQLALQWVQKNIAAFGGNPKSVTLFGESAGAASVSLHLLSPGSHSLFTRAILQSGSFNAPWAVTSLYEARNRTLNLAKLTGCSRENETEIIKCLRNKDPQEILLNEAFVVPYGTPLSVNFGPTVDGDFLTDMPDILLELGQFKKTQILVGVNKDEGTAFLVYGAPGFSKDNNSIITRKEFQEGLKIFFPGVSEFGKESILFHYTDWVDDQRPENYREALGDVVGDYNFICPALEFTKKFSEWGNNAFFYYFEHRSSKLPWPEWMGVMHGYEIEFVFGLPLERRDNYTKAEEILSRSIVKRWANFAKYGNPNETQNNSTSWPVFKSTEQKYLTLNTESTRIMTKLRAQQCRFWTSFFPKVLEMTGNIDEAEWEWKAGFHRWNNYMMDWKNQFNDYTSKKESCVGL

The term IC50 denotes the concentration needed to halve the response being measured. A higher IC50 goes with a need for much substance. Consider `c1cc[n+](CCCC[n+]2ccccc2)cc1`, for which the half-inhibitory concentration (IC50) in assay [1] worked out at 505 µM; in assay [2], 9800 µM.

With `c1cc[n+](CCCCCCCC[n+]2ccccc2)cc1`, the IC50 stood at 31 µM in assay [1] and 29 µM in assay [2]. The like results for `c1cc[n+](CCCCC[n+]2ccccc2)cc1` were, in that order, 1270 µM and 120 µM. The like results for `c1cc[n+](Cc2ccccc2C[n+]2ccccc2)cc1` were, in that order, 636 µM and 345 µM.

As usually defined, the Ki is the dissociation constant of the complex between target and ligand, obtained from inhibition or displacement. A low value points to a stronger hold on the target. Turning to `c1cc[n+](Cc2ccc3ccc(C[n+]4ccccc4)cc3c2)cc1`, the IC50 in assay [1] came out at 0.2 µM; in assay [2], 0.8 µM. The Ki in assay [3] and in assay [4] was 0.14 µM throughout. Regarding `c1cc[n+](Cc2cccc(C[n+]3ccccc3)c2)cc1`, the results for the IC50 in assay [1] and in assay [2] were 2360 µM and 1380 µM, respectively.

`c1cc[n+](CCCCCC[n+]2ccccc2)cc1`: the IC50 worked out at 63 µM in assay [1] and 130 µM in assay [2].

Regarding `c1cc[n+](CCCCCCC[n+]2ccccc2)cc1`, the values for the IC50 in assay [1] and in assay [2] were 241 µM and 78 µM, respectively.

Turning to `C(=C/C[n+]1ccccc1)/C[n+]1ccccc1`, the IC50 is 1990 µM in assay [1] and 1270 µM in assay [2]. The corresponding values for `c1cc[n+](COC[n+]2ccccc2)cc1` are 1770 µM and 583 µM. In the case of `c1cc[n+](CCOCC[n+]2ccccc2)cc1`, the figures for the IC50 in assay [1] and in assay [2] were 2010 µM and 2360 µM, respectively. On to `c1cc[n+](CC[n+]2ccccc2)cc1`, for which the inhibition entry in assay [5] was “inactive”.

As to `c1cc[n+](CCC[n+]2ccccc2)cc1`, the inhibition result in assay [5] was “inactive”. With `c1cc[n+](CCCCCCCCCCC[n+]2ccccc2)cc1`, the IC50 in assay [1] worked out at 0.7 µM; in assay [2], 7 µM. Further, the figures for the inhibition constant Ki in assay [3] and in assay [4] were 0.02 µM and 0.03 µM, respectively. On to `c1cc[n+](CCCCCCCCCCCC[n+]2ccccc2)cc1`, for which the inhibition entry in assay [5] is “inactive”. `CN(C)C(=O)Oc1cccc([N+](C)(C)C)c1` [NEOSTIGMINE BROMIDE] registered an IC50 in assay [2] of 0.8 µM. Turning to `c1cc[n+](C[n+]2ccccc2)cc1`, in assay [5], the inhibition entry was “inactive”. Consider `c1cc[n+](CCCCCCCCC[n+]2ccccc2)cc1`, for which the values for the IC50 in assay [1] and in assay [2] were 2 µM and 6 µM, respectively.

For `C(=C\C[n+]1ccccc1)/C[n+]1ccccc1`, the results for the IC50 in assay [1] and in assay [2] were 2290 µM and 541 µM, respectively.

As for `c1cc[n+](Cc2ccc(C[n+]3ccccc3)cc2)cc1`, the IC50 in assay [1] was 1540 µM; in assay [2] it was 529 µM.
